Reference: patent US7378397B2 (The Provost, Fellows and Scholars of the College of the …, priority 2000, dated 2008)
Converted amounts (≈) assume the structure as drawn. Where a SMILES comes first, the peptide text is derived from it. [ ]: non-standard residue; d: D form. The star is where a group is joined. AMC = Cc1cc(=O)oc2cc(N*)ccc12; pGlu = O=C1CC[C@@H](C(=O)O)N1; Pip = O=C(O)[C@@H]1CCCCN1

Columns and labels:
[1] = target: TRH receptors in rat cortical membranes; test: radioligand binding to ^3H-3MeHis-TRH-labelled receptors in rat cortex; settings: competition with 6-8 nM ^3H-3MeHis-TRH, Cheng-Prusoff
Experimental: Evaluation of the ability of TRH, Glp-Asn-ProNH2, and Glp-Asn-ProAMC to bind to ^3H-3MeHis-TRH-labelled receptors in rat cortex: Radioligand binding assays were conducted to investigate the possibility that the two TRH-DE inhibitors might exert their effects by acting independently at TRH receptors in the brain.
Cortex tissue from male Sprague-Dawley rats (250 g) was dissected out, weighed and homogenised in 30 volumes of ice-cold sodium phosphate buffer (0.02 M, pH 7.5). The homogenates were centrifuged at 30,000 g at 4° C. for 30 min. The supernatant was discarded and the pellet was resuspended at 100 mg wet wt/ml in buffer containing 177 μM bacitracin. […] Non-specific binding was defined in the presence of 10 μM TRH.
The statistical significance of differences between behavioural effects of treatments was determined using the Student's t-test or ANOVA, followed by a post-ANOVA test, as indicated. Radioligand binding data were analysed using non-linear curve fitting software (Prism, Graph Pad Software Inc.). IC50 values calculated from competition experiments were converted to Ki values using the Cheng-Prusoff (41) equation Ki=IC50/(1+L/Kd), where L=ligand concentration and Kd=the apparent dissociation constant for [^3H]-[3-MeHis]TRH.

TRH-DE [2] = target: T1, TRH-DE (Sus scrofa, UniProt A0A287AP33); test: continuous coupled fluorometric TRH-DE assay (TRHAMC substrate, DPP-IV coupling enzyme); assay type: biochemical, porcine; settings: for inhibition at 1000 µM: peptide 1 mM
T1 construct: The inventor purified TRH-DE from porcine brain according to purification procedures previously published by Dr. K. Bauer; from tissue; host or cells: porcine brain (TRH-DE); bovine kidney (DPP-IV, gift from Dr. C. H. Williams)
Experimental: (§1) The inventor purified TRH-DE from porcine brain according to purification procedures previously published by Dr. K. Bauer, (Max-Planck-Institut, Hannover, Germany) (1). TRH-DE was purified almost 20,000 fold. […] Dipeptidyl peptidase IV (DPP-IV) (EC 3.4.14.5), purified from bovine kidney (7.7 mg ml^−1, specific activity of 17.5 U mg^−1 with Gly-ProAMC as substrate), was obtained as a gilt from Dr. C. H. Williams (Queen's University Belfast, U.K). (DPP-IV was used as the coupling enzyme used in the fluorometric assays).
(§2) One unit (U) of enzyme activity was defined as that amount catalysing the formation of one μmol of product in one minute under the standard conditions employed. All incubations in the assays described below were carried out in 20 mM potassium phosphate buffer, pH 7.5, at 37° C.
Kinetic analysis of peptides that are not hydrolysed by TRH-DE. A recently-developed continuous coupled fluorometric assay (23) was used to investigate the ability of those library peptides that were not hydrolysed by TRH-DE to inhibit TRHAMC degradation by TRH-DE. In this assay, TRHAMC is the substrate and dipeptidyl peptidase IV (DPP-IV) (EC 3.4.14.5) is the coupling enzyme. The reaction sequence is:
The reaction was monitored continuously by measuring the increase in AMC fluorescence. A linear progress curve with no discernible lag period was observed when the reaction was monitored over a period of 10 minutes. Nevertheless, data sampling was not commenced until 100 s from the start of the reaction to ensure measurements were taken after a steady state had been reached (see Ref. 23).
In a preliminary experiment, the peptides were screened for their ability to inhibit TRH-DE activity. The initial rate of TRHAMC hydrolysis by TRH-DE was measured by incubating 5 μM TRHAMC with 1.23 μg DPP-IV and 0.32 μg TRH-DE, both in the absence and presence of each library peptide (1 mM final concentration) under standard assay conditions (23). In each case the percentage inhibition (i%) was calculated using the equation i%=100(1-vi/vo), where vi and vo are the initial velocities in the presence and absence of peptide, respectively.
Since these peptides were poor inhibitors they were not examined further. The Ki values for the remainder of the peptides were determined by measuring their effects on TRHAMC degradation by TRH-DE using the continuous assay. Data were collected in duplicate at five different substrate concentrations and at least three different concentrations of each peptide.
Reversibility and time dependence of the inhibition produced by Glp-Gln-ProNH2, Glp-Asn-ProNH2 and Glp-Asn-ProAMC were examined by initially preincubating TRH-DE with each peptide at 37° C. for various periods up to 75 min. To investigate time dependence, the enzyme-peptide solution was subsequently added to the reaction mixture containing TRHAMC, DPP-IV, buffer and peptide, and TRH-DE activity was measured using the continuous assay. The final concentration of Glp-Gln-ProNH2, Glp-Asn-ProNH2 and Glp-Asn-ProAMC used was 400, 160 and 1 μM, respectively. […] TRH-DE activity was not affected by pre-incubation at 37° C.
Fluorescence measurements were made using a Perkin Elmer LS 50B Luminescence Spectrometer fitted with a thernostated cell holder. Wavelengths for excitation and emission were set at 370 nm and 440 nm, respectively, with slit widths of 10 nm and 5 nm, respectively.

Male Wistar rats = test: behavioural effects (WDS, locomotion) after i.c.v. administration; assay type: in vivo, rat; settings: 5 μg alone, 30 min
Experimental: Methods: Behavioural studies were conducted using experimentally naïve Male Wistar rats (200-250 g) maintained in a temperature controlled (21° C.), artificially-lighted (12 hr light cycle) room with free access to food and water. Behavioural effects of […] following intra-cerebroventricular (i.c.v.) administration: Animals were implanted with guide cannula aimed at the lateral cerebral ventricles (AP-0.92 mm, ML-1.5 mm, DV-2.6 mm relative to Bregma, atlas of Paxinos & Watson) under halothane anaesthesia. One week following surgery placement of the cannulae was assessed by the ability of a microinjection of angiotensin II (200 ng in 1 μl) to induce drinking behaviour. […] They were then administered either vehicle (1 μl 0.9% saline) or […] (5 μg in 1 μl) followed 1 minute later by vehicle (1 μl 0.9% saline) or TRH (5 μg in 1 μl). One minute after the last i.c.v. injection animals were placed back into the perspex cage and their behaviour monitored by a computer automated tracking system for 30 minutes (Ethovision Pro, Noldus) to provide measures of locomotor activity. Animals were videotaped for subsequent blind analysis of WDS behaviour by a trained observer. A threshold dose of 5 μg TRH was chosen for i.c.v. administration so that if […] enhanced responses to TRH, this would be clearly visible. The statistical significance of differences between behavioural effects of treatments was determined using the Student's t-test or ANOVA, followed by a post-ANOVA test, as indicated. Radioligand binding data were analysed using non-linear curve fitting software (Prism, Graph Pad Software Inc.). IC50 values calculated from competition experiments were converted to Ki values using the Cheng-Prusoff (41) equation Ki=IC50/(1+L/Kd), where L=ligand concentration and Kd=the apparent dissociation constant for [^3[…].

TRH-DE [3] = target: T1, TRH-DE; test: HPLC assay of peptide hydrolysis by TRH-DE (Glp production); assay type: biochemical, porcine; settings: for hydrolysis by TRH-DE (release of Glp): 1 mM peptide incubated with TRH-DE 18 h at 37° C., HPLC; for Rate of hydrolysis: peptide 1 mM, 37° C., Glp production by HPLC, mean±S.D.
Experimental: as §1, §2
Kinetic analysis of the peptide library using HPLC—The ability of each peptide in the library to act as a TRH-DE substrate was assessed using HPLC. As an initial screen, 1 mM peptide was incubated with 0.8 μg TRH-DE in a total volume of 1 ml for 18 h at 37° C. Control samples were included in which peptide (1 mM) or Glp (0.2 mM-0.8 mM) were incubated under identical conditions in the absence of TRH-DE. TRH-DE activity was terminated by the addition of TFA (0.15% v/v) and samples were then analysed using HPLC as described previously (24). Products resulting from TRH-DE hydrolysis could be separated on a C-18 reverse-phase column (Hypersil, UK) using a linear gradient of 0-70% acetonitrile in 0.08% (v/v) TFA. The concentration of Glp formed by the action of TRH-DE on the peptide library was measured by UV absorbance at 206 nm with a quantitative detection limit of 0.1 mM for a 40 μl injection volume, employing a signal to noise ratio of 10. Following the incubation of each peptide with TRH-DE, evidence of Glp in the sample was taken to indicate that the peptide was a TRH-DE substrate.
The rates of hydrolysis for each of those peptides identified as substrates were then compared by measuring Gip production using microassays with shorter incubation times. In these assays peptide (1 mM) was incubated at 37° C. in a total volume of 100 μl. 0.8-3.2 μg TRH-DE and incubations times of 5 min to 18 h were used routinely. Measurements were made in triplicate. The rate of TRH-OH hydrolysis was also measured by this method.

TRH-DE [4] = settings: published observation (21); cited from earlier work
TRH-DE [5] = target: T1, TRH-DE; settings: From Ref. 23 (inventor's publication); cited from earlier work
[6] = non-linear regression, five TRHAMC concentrations and at least three peptide concentrations, mean±S.D. (n=3)

T1 sequence (A0A287AP33 1-1066): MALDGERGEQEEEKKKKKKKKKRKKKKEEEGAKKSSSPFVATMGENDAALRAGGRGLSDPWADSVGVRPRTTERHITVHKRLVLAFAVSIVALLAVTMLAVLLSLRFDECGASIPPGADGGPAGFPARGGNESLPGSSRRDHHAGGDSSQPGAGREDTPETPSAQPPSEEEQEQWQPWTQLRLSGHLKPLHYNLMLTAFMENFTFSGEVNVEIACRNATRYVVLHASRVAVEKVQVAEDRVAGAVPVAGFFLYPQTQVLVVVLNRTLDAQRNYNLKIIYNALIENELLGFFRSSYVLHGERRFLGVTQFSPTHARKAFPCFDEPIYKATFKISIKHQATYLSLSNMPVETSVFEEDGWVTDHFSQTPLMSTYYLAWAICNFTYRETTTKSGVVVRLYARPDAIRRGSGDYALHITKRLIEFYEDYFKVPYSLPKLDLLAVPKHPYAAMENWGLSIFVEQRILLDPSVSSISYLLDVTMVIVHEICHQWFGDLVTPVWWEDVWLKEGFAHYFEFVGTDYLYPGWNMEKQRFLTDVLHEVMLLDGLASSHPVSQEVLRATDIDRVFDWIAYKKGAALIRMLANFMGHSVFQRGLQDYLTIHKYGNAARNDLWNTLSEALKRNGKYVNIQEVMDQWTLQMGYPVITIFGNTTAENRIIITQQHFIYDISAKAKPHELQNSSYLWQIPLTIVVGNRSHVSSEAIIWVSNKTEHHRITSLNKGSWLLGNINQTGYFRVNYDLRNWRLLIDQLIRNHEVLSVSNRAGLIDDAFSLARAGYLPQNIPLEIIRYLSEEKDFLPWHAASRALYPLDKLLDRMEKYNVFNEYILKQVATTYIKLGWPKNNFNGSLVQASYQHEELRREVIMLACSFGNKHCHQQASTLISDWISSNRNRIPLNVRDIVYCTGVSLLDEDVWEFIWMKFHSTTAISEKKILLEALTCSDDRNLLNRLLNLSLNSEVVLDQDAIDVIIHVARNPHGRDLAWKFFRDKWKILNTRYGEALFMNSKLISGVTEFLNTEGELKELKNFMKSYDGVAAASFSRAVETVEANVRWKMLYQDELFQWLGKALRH

Ki (TRH-DE [2]; [6])	hydrolysis by TRH-DE (release of Glp) (TRH-DE [3])	inhibition at 1000 µM (TRH-DE [2]; 5 μM TRHAMC substrate)	Rate of hydrolysis (TRH-DE [3])	Compound	substrate for TRH-DE (TRH-DE [4])	also measured
0.97 ± 0.08 µM				Cc1cc(=O)oc2cc(NC(=O)[C@@H]3CCCN3C(=O)[C@H](CC(N)=O)NC(=O)[C@@H]3CCC(=O)N3)ccc12 [Glp-Asn-ProAMC, Glp-Asn-Pro-7amido-4-methyl coumarin] ([pGlu]-Asn-Pro-{AMC})		pKi [1]: 4.32±0.24; Ki (TRH-DE [2]; calculated from percent inhibition measured in duplicate at 5 μM substrate): 0.41 µM; mode of inhibition of TRH-DE (TRH-DE [2]; continuous assay, Lineweaver-Burk plot): simple competitive inhibitors; inhibition at 1 µM (TRH-DE [2]; peptide 1 μM, 5 μM TRHAMC substrate): 50%; reversibility and time dependence of inhibition (TRH-DE [2]; preincubation with TRH-DE up to 75 min at 37° C., Glp-Gln-ProNH2 400, Glp-Asn-ProNH2 160, Glp-Asn-ProAMC 1 μM): fully reversible and not time-dependent; number of WDS compared with vehicle (Male Wistar rats): Neither TRH nor Glp-Asn-ProAMC alone produced a significantly greater number of WDS than vehicle; solubility (physchem): 1000 µg/mL (≈ 2010 µM)
	No detectable Glp	17%		NC(=O)[C@@H]1CCCN1C(=O)[C@H](CCC(=O)O)NC(=O)[C@@H]1CCC(=O)N1 [Glp-Glu-ProNH2] ([pGlu]-Glu-Pro-NH2)	is not	Ki (TRH-DE [2]; estimated from <20% inhibition at 1 mM peptide with the competitive inhibition relationship): > 1000 µM
			1.56 ± 0.13 (5) U mg^−1	NC(=O)[C@@H]1CCCN1C(=O)[C@H](Cc1ccccc1)NC(=O)[C@@H]1CCC(=O)N1 [Glp-Phe-ProNH2] ([pGlu]-Phe-Pro-NH2)	is also a substrate for TRH-DE	
232 ± 26 µM	No detectable Glp	71%		NC(=O)[C@@H]1CCCN1C(=O)[C@H](Cc1c[nH]c2ccccc12)NC(=O)[C@@H]1CCC(=O)N1 [Glp-Trp-ProNH2] ([pGlu]-Trp-Pro-NH2)		
500 ± 133 µM	No detectable Glp	40%		NC(=O)[C@@H]1CCCN1C(=O)[C@@H]1CCCCN1C(=O)[C@@H]1CCC(=O)N1 [Glp-homoPro-ProNH2] ([pGlu]-[Pip]-Pro-NH2)		
			3.38 ± 0.18 (3) U mg^−1	Glp-His-ProOH		Vmax (TRH-DE [3]; estimated from HPLC rates of hydrolysis using Vmax=vo{(Km+[S])/[S]}): 4.43 ± 0.24 (3) U mg^−1; Km (TRH-DE [5]): 311 µM
